Test system: 299254-011-R-J1-PDC complex spheroids viability
Assay: Anticancer human tumor 299254-011-R-J1-PDC patient-derived melanoma cell line growth inhibition [GQUAD]
Conditions: for IC50: curve of first compound; for viability, T/C: stronger effect = lower value
Method in brief: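 Tumor cells were grown as complex spheroids with HUVEC endothelial cells and mesenchymal stem cells as stroma. G-quadruplex stabilizers were combined with targeted agents over half-log dilutions from near the clinical Cmax, or from 10 microM.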

[1] = second compound 0.0316 µM, first compound 0.0316 µM
[2] = second compound 0.0316 µM, first compound 0.1 µM
[3] = second compound 0.0316 µM, first compound 0.316 µM
[4] = second compound 0.0316 µM, first compound 1 µM
[5] = second compound 0.0316 µM, first compound 3.16 µM
[6] = second compound 0.0316 µM, first compound 10 µM
[7] = second compound 0.1 µM, first compound 0.0316 µM
[8] = second compound 0.1 µM, first compound 0.1 µM
[9] = second compound 0.1 µM, first compound 0.316 µM
[10] = second compound 0.1 µM, first compound 1 µM
[11] = second compound 0.1 µM, first compound 3.16 µM
[12] = second compound 0.1 µM, first compound 10 µM
[13] = second compound 0.316 µM, first compound 0.0316 µM
[14] = second compound 0.316 µM, first compound 0.1 µM
[15] = second compound 0.316 µM, first compound 0.316 µM
[16] = second compound 0.316 µM, first compound 1 µM
[17] = second compound 0.316 µM, first compound 3.16 µM
[18] = second compound 0.316 µM, first compound 10 µM
[19] = second compound 1 µM, first compound 0.0316 µM
[20] = second compound 1 µM, first compound 0.1 µM
[21] = second compound 1 µM, first compound 0.316 µM
[22] = second compound 1 µM, first compound 1 µM
[23] = second compound 1 µM, first compound 3.16 µM
[24] = second compound 1 µM, first compound 10 µM
[25] = second compound 3.16 µM, first compound 0.0316 µM
[26] = second compound 3.16 µM, first compound 0.1 µM
[27] = second compound 3.16 µM, first compound 0.316 µM
[28] = second compound 3.16 µM, first compound 1 µM
[29] = second compound 3.16 µM, first compound 3.16 µM
[30] = second compound 3.16 µM, first compound 10 µM
[31] = second compound 10 µM, first compound 0.0316 µM
[32] = second compound 10 µM, first compound 0.1 µM
[33] = second compound 10 µM, first compound 0.316 µM
[34] = second compound 10 µM, first compound 1 µM
[35] = second compound 10 µM, first compound 3.16 µM
[36] = second compound 10 µM, first compound 10 µM
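Further: spheroids exposed to the agents for seven days before readout.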
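Wherever viability, T/C is given: percent viability relative to DMSO vehicle control wells = 100%.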

`Nc1ccn(C2OC(CO)C(O)C2(F)F)c(=O)n1` (centres undefined) + CN(C)c1ccc(Nc2c3ccc(NC(=O)CCN4CCCC4)cc3nc3cc(NC(=O)CCN4CCCC4)ccc23)cc1 was tested, and the IC50 (second compound 0.0316 µM) was > 10 µM, the IC50 (second compound 0.1 µM) was > 10 µM and the IC50 (second compound 0.316 µM) was 3.16 µM. For the same compound, the IC50 (second compound 1 µM) was > 10 µM, the IC50 (second compound 3.16 µM) was > 10 µM and the IC50 (second compound 10 µM) was > 10 µM. The viability, T/C [1] was 84%, the viability, T/C [2] was 73.5% and the viability, T/C [3] was 66.9%. For the same compound, the viability, T/C [4] was 60.4%, the viability, T/C [5] was 54.7% and the viability, T/C [6] was 59.3%. It also gave a viability, T/C [7] of 80.3%, a viability, T/C [8] of 94.6% and a viability, T/C [9] of 67.1%. For the same compound, the viability, T/C [10] was 56.6%, the viability, T/C [11] was 58.1% and the viability, T/C [12] was 59.7%. The viability, T/C [13] was 85.2%, the viability, T/C [14] was 117% and the viability, T/C [15] was 51.7%. The viability, T/C [16] was 59.6%, the viability, T/C [17] was 68.3% and the viability, T/C [18] was 56.7%. It also gave a viability, T/C [19] of 93.5%, a viability, T/C [20] of 81.2% and a viability, T/C [21] of 68.7%. For the same compound, the viability, T/C [22] was 57.8%, the viability, T/C [23] was 63% and the viability, T/C [24] was 72.9%. For the same compound, the viability, T/C [25] was 94.1%, the viability, T/C [26] was 98.1% and the viability, T/C [27] was 71.3%. For the same compound, the viability, T/C [28] was 59.7%, the viability, T/C [29] was 55.6% and the viability, T/C [30] was 59%. The viability, T/C [31] was 105%, the viability, T/C [32] was 80.1% and the viability, T/C [33] was 65.6%. For the same compound, the viability, T/C [34] was 64.3%, the viability, T/C [35] was 66.6% and the viability, T/C [36] was 61.6%.

`O=c1[nH]cc(F)c(=O)[nH]1` + CN(C)c1ccc(Nc2c3ccc(NC(=O)CCN4CCCC4)cc3nc3cc(NC(=O)CCN4CCCC4)ccc23)cc1 was tested, and the IC50 (second compound 0.0316 µM) was > 10 µM, the IC50 (second compound 0.1 µM) was > 10 µM and the IC50 (second compound 0.316 µM) was > 10 µM. The IC50 (second compound 1 µM) was > 10 µM, the IC50 (second compound 3.16 µM) was > 10 µM and the IC50 (second compound 10 µM) was > 10 µM. It also gave a viability, T/C [1] of 93.3%, a viability, T/C [2] of 106% and a viability, T/C [3] of 105%. It also gave a viability, T/C [4] of 104%, a viability, T/C [5] of 110% and a viability, T/C [6] of 82.9%. For the same compound, the viability, T/C [7] was 79.3%, the viability, T/C [8] was 91.4% and the viability, T/C [9] was 90.7%. For the same compound, the viability, T/C [10] was 92.2%, the viability, T/C [11] was 86.7% and the viability, T/C [12] was 91.5%. It also gave a viability, T/C [13] of 89.2%, a viability, T/C [14] of 106% and a viability, T/C [15] of 80.2%. The viability, T/C [16] was 93.3%, the viability, T/C [17] was 104% and the viability, T/C [18] was 82.6%. The viability, T/C [19] was 106%, the viability, T/C [20] was 91.3% and the viability, T/C [21] was 93.3%. It also gave a viability, T/C [22] of 84.6%, a viability, T/C [23] of 103% and a viability, T/C [24] of 101%. It also gave a viability, T/C [25] of 82.7%, a viability, T/C [26] of 103% and a viability, T/C [27] of 112%. The viability, T/C [28] was 95.1%, the viability, T/C [29] was 115% and the viability, T/C [30] was 106%. It also gave a viability, T/C [31] of 91.3%, a viability, T/C [32] of 96.8% and a viability, T/C [33] of 98.4%. It also gave a viability, T/C [34] of 94.7%, a viability, T/C [35] of 90.9% and a viability, T/C [36] of 96.3%.

From PubChem BioAssay AID2060513 (Molecular Pharmacology Branch, DTP, NCI, 2025)
